The subject of one assay is SLAPX. Kind of assay: Example 3: expression of heat stress tolerance-related gene SLAPX (real-time PCR). It counts as in vivo, tomato (cultivar: Regina). To be noted: 5 mM Val; 10 μM IAA; 50 μM PAA; combinations 5 mM Val + 10 μM IAA, 5 mM Val + 50 μM PAA; 24 hours after spraying; n=3; relative to Actin. The method, then: (§1) Plants of tomato (cultivar: Regina) were used in evaluation of the genes.
(§2) Two tomato seeds were sown in a slit pot having a diameter of 10.5 cm (10.5 cm (top diameter)×8.8 cm (height)) filled with potting soil, and cultivated in a biotron at a temperature of 23 °C, with a light period of 14 hours (6:00 to 20:00) and a dark period of 10 hours (20:00 to 6:00). As the potting soil, a mixture of Kumiai Nippi Engei Baido No. 1 (Nihon Hiryo Co., Ltd.) and vermiculite at 3:1 (volume ratio) was used. After one week, thinning was performed to leave one plant, and cultivation was continued.
(§3) The material was dissolved in water before use. Twenty-five days after the sowing, 0.1% spreading agent “Approach BI” (Kao Corporation) was added to the material treatment solution, and the resulting solution was sprayed over the entire plant. For each treatment group, three tomato plants were used, and 2 mL of the treatment solution per plant was sprayed. Twenty-four hours after the spraying, a 1.5 cm×1.5 cm section was collected as a sample from the second true leaf.
(§4) From each leaf sample collected from tomato, RNA was extracted using a Maxwell™ RSC Plant RNA Kit (Promega) according to the manufacturer's instructions. Subsequently, single-stranded cDNA was synthesized from the extracted RNA using a ReverTra Ace™ qPCR RT Master Mix (TOYOBO). As genes associated with heat stress tolerance in tomato, the following two genes were evaluated: Heat shock factor A2 (HsFA2) and Ascorbate peroxidases (APX). Using the above cDNA as a template, real-time PCR was performed using the primers shown in Table 6, and the expression level of each gene was calculated as a relative expression level with respect to the Actin gene.

For assay [1], the system named is tomato. Kind of assay: Example 1: heat stress tolerance of tomato (number of fruits) with Val and/or IAA. The format is in vivo, cultivar Regina. To be noted: heat stress max 35 °C; foliar spray; Val 5 mM or 10 mM; IAA 10 μM; Val 5 mM & IAA 10 μM. The method, then: In the present Example, Val (valine) and IAA (indole-3-acetic acid) were applied to tomato either alone or in combination, and heat stress tolerance-inducing effects were evaluated.
• Tomato: cultivar Regina
Two tomato seeds were sown in a pot (Sakata) having a soil diameter of 10.5 cm and containing 350 g of a mixed soil of potting soil (Kumiai No. 1) and vermiculite (potting soil:vermiculite=3:1 (v:v)). Two weeks later, the tomato plants were thinned to leave one plant. Thirty-five days after the sowing, soil fertilization was performed with 100 mL of a 500-fold diluted Hyponex solution. Water supplementation was performed as appropriate.
The non-heat stress treatment+water treatment group (No. 1) was used as a positive control. The heat stress treatment groups included five treatment groups (Nos. 2 to 6). The material treatment and the heat treatment were performed in two separate sets. The first set of material treatment was performed 40 days after the sowing, when flowering of the tomato plants had started. The second set of material treatment was performed 46 days after the sowing. The material treatment was performed by preparing an aqueous material solution containing 0.1% spreading agent “Approach BI”, and performing foliar spraying. To each tomato plant, 6 mL of the aqueous material solution was sprayed. […]

The subject of assay [2] is plant male sterility caused by high temperatures. As to conditions: in vivo; cited from earlier work.
In the next assay the test system is SLHsFA2. The assay is described as follows: Example 3: expression of heat stress tolerance-related gene SLHsFA2 (real-time PCR). The format is in vivo, tomato (cultivar: Regina). As to conditions: 5 mM Val; 10 μM IAA; 50 μM PAA; combinations 5 mM Val + 10 μM IAA, 5 mM Val + 50 μM PAA; 24 hours after spraying; n=3; relative to Actin. The method, then: as §1, §2, §3, §4
In general terms: In qPCR the cycle at which signal appears reflects the starting amount.

Assay [3] has as its system tomato. Kind of assay: Example 2: heat stress tolerance of tomato (number and weight of fruits) with Val and/or PAA. To be noted: Val 5 mM, PAA 10 μM. It counts as in vivo, cultivar Regina. How it is done:
In the present Example, Val (valine) and PAA (phenylacetic acid) were applied to tomato plants individually or in combination, and their heat stress tolerance-inducing effects were evaluated.
Same as in Example 1, except that the five treatment groups shown in Table 3 were evaluated under the cultivation conditions shown in Table 4 (the maximum high temperature was 37 °C).

For assay [4], the system named is tomato. Kind of assay: Example 4: tomato pot test, harvested fruit weight under heat stress. To be noted: PAA 10 μM, Val 5 mM, PAA higher than Val. It counts as in vivo, tomato: Home Momotaro, rootstock (Boranchi). The method, then: • Tomato: Home Momotaro, rootstock (Boranchi).
Sandy loam (SL) was filled into a planter at 0.18 m^2/planter, and two tomato plants were planted therein. As a fertilizer, OK-F-1 (OAT Agrio Co., Ltd.) was used. The fertilizer was diluted 2000-fold with water, and applied as appropriate at 2000 mL/plant/application. Topping was performed with one leaf left above the fourth truss, and axillary buds were removed as appropriate. Cultivation was performed in a glasshouse under natural light.
Five treatment groups were evaluated (Table 7). The water-treated non-heat stress treatment group was used as a positive control. The other four treatment groups were subjected to heat treatment. The heat treatment was performed twice. The first treatment was performed for 10 days at the pre-flowering stage of the first truss, and the second treatment was performed for 10 days at the flowering stage of the fourth truss. The heat treatment was performed by opening and closing side windows and roof windows of the glasshouse (with a target maximum temperature of 35 °C in the glasshouse).
The material was applied by spraying onto stems and leaves at 50 mL per plant on the start day of the heat treatment and three days thereafter. To each material, a spreading agent (Approach BI (Kao)) was added to a final concentration of 0.05%.
Harvesting and examination were performed 11 times until the fourth truss matured. […]

For a further assay, the system named is rice. The assay is described as follows: Example 5: rice pot test, seed weight and seed fertility under heat stress. It counts as in vivo, cultivar Nipponbare. As to conditions: PAA 10 μM; for fertile seed weight compared to water treatment (in words) / seed fertility compared to water treatment (in words) / total seed weight compared to water treatment (in words) / Fertile seed weight, relative value to heat treatment + water treatment group / Fertility (seed fertility), relative value to heat treatment + water treatment group / Total seed weight, relative value to heat treatment + water treatment group: Val 5 mM; for Fertile seed weight, relative value to heat treatment + water treatment group / Fertility (seed fertility), relative value to heat treatment + water treatment group / Total seed weight, relative value to heat treatment + water treatment group: heat treatment (38 °C), water = 100%. The method, then: • Rice cultivar: Nipponbare
Prior to sowing, rice seeds were sterilized with 25% antiformin and 70% ethanol. Filter paper was placed in a Petri dish, and rice seeds were placed on the filter paper. The filter paper was sufficiently wetted with sterile water, and the rice seeds were germinated in a dark place at 25 °C. Six days after the sowing, the germinated rice seeds were planted in a cell tray. As the potting soil in the cell tray, a mixed soil of Kumiai Baido No. 1: vermiculite=7:3 (v/v) was used. The rice plants planted in the cell tray were cultivated in a chamber under the following conditions: 14 h/light period at 28 °C and 10 h/dark period at 22 °C.
On June 20, rice seedlings cultivated in the chamber for 18 days were transplanted to magnet pots, and cultivated until harvest in an outdoor cultivation water tank apparatus. In the magnet pots, 2.3 kg of a potting soil of Kumiai Baido No. 1: vermiculite=7:3 (v/v) was used, and two rice seedlings were transplanted to each pot. During the cultivation, water was appropriately managed. From one month after the transplantation, additional fertilizer was applied with ammonium sulfate and Hyponex three times at intervals of one week.
At the heading stage, one week after the start of heading of rice, material spraying and heat treatment were each performed twice at intervals of one week. The heat treatment was performed about 16 hours after the spraying of a material. Five pots were included in each treatment group as replicates. The material was diluted with water to prepare a treatment solution, and 0.1% spreading agent “Approach BI” (Kao Corporation) was added to the treatment solution, followed by spraying 60 mL per pot of the prepared aqueous material solution onto the whole plants. For the heat treatment, the rice plants were placed in a mini-house for 6 hours from 10:00 to 16:00, and the temperature was about 37 °C to 39 °C. After completion of the heat treatment, the plants were further cultivated, and on October 8, […] after transplanting to Wagner pots, an aboveground part of each plant was cut and harvested.
The cut aboveground parts of the plants, including seeds, were dried for 15 days, and the total seed weight, the fertile seed weight, and the seed fertility were examined. The fertile seed weight is the weight of seeds obtained by removing sterile seeds of empty husks using a threshing machine. From the total seeds, 10 mL of seeds (about 100 to 150 grains) was randomly taken out into a 50-mL Falcon tube, and fertile seeds and sterile seeds were separated from each other, followed by counting their numbers. The proportion (percentage) of the fertile seeds to the total number of seeds was defined as the seed fertility.

A further assay concerns plants. To be noted: in vivo; cited from earlier work.

The values below come from patent publication US20260344662A1, “METHOD FOR INDUCING HIGH-TEMPERATURE STRESS TOLERANCE IN PLANTS” (AJINOMOTO CO., INC., priority 2023, published 2026).

A value given as a limit tells only on which side of the number the result lay.

For the compound `O=C(O)Cc1c[nH]c2ccccc12` [IAA, indole-3-acetic acid], the “expression of SLAPX compared to Mock (water)” value in the assay with SLAPX is given as “no difference in expression”. Further, the “number of tomato fruits compared to heat stress treatment+water treatment group” value in the assay on tomato [1] is on record as “markedly increased”. In assay [2], the “reversal of plant male sterility caused by high temperatures” value was “function of reversing plant male sterility caused by high temperatures”. For the same compound, the “expression of SLHsfA2 compared to Mock (water)” value in the assay with SLHsFA2 was “no difference in expression”.

With `O=C(O)Cc1ccccc1` [PAA, phenylacetic acid], the “number of tomato fruits compared to heat stress treatment+water treatment group” value in the assay with tomato [3] is listed as “no large difference”. Also, the “expression of SLAPX compared to Mock (water)” value in the assay on SLAPX is reported as “no difference in expression”. The “harvested fruit weight compared to water-sprayed heat stress group” value in the assay with tomato [4] was “exceeded the water-sprayed group”. For the same compound, the “expression of SLHsfA2 compared to Mock (water)” value in the assay on SLHsFA2 is on record as “no difference in expression”. In addition, the “increase in seed fertility” value in the assay with rice (Val 5 mM & PAA 10 μM, heat treatment) was no less than 20%. In addition, in the assay with rice (heat treatment), the “fertile seed weight compared to water treatment (in words)” value is “neither the treatment with Val alone nor the treatment with PAA alone showed significant differences”, the “seed fertility compared to water treatment (in words)” value is recorded as “increased the seed fertility” and the “total seed weight compared to water treatment (in words)” value is “neither the treatment with Val alone nor the treatment with PAA alone showed significant differences”. For the same compound, in the assay with rice, the “Fertile seed weight, relative value to heat treatment + water treatment group” value was found to be 105.6%; the “Fertility (seed fertility), relative value to heat treatment + water treatment group” value is recorded as 110.8%; the “Total seed weight, relative value to heat treatment + water treatment group” value is 101.8%.

`CC(C)[C@H](N)C(=O)O` [Val, L-valine]: the “number of tomato fruits compared to heat stress treatment+water treatment group” value in the assay on tomato [3] is reported as “no large difference”. For the same compound, in the assay on SLAPX, the “expression of SLAPX compared to Mock (water)” value is “no difference in expression”. Moreover, the “number of tomato fruits compared to heat stress treatment+water treatment group” value with tomato [1] was “markedly increased”. Moreover, the “harvested fruit weight compared to water-sprayed heat stress group” value in the assay on tomato [4] was “exceeded the water-sprayed group”. For the same compound, in the assay on plants, the “induction of heat stress tolerance in plants” value is recorded as “function of inducing heat stress tolerance in plants”. The “expression of SLHsfA2 compared to Mock (water)” value in the assay with SLHsFA2 was “no difference in expression”. In the assay on rice (heat treatment), the “fertile seed weight compared to water treatment (in words)” value is on record as “neither the treatment with Val alone nor the treatment with PAA alone showed significant differences”, the “seed fertility compared to water treatment (in words)” value is given as “increased the seed fertility” and the “total seed weight compared to water treatment (in words)” value is “neither the treatment with Val alone nor the treatment with PAA alone showed significant differences”. Besides, in the assay with rice, the “Fertile seed weight, relative value to heat treatment + water treatment group” value was determined as 98.7%; the “Fertility (seed fertility), relative value to heat treatment + water treatment group” value turned out to be 123.9%; the “Total seed weight, relative value to heat treatment + water treatment group” value amounted to 93.9%.
